Legend:
SW48+sh-MATE1 CDX = experiment: Cell-derived xenograft (CDX), tumor growth; assay type: in vivo, BALB/c nude mice; conditions: 200 mg/kg in water, 30 d, MATE1 knocked down, FIGS. 12G-L
Procedure: (§1) In the CDX, CRISPR/Cas9 was first utilized to build a KRAS^G13DSW48 cell line; MATE1 was knocked down by shRNA lentivirus transduction in SW48 to build a sh-MATE1-SW48 cell line; lentivirus was infected in KRAS^G13DSW48 cells to over-express MATE1. 1×10^6 cells were suspended in a basement membrane matrix (100 μl basement membrane matrix and 100 μl PBS) and subcutaneously injected into BALB/c nude mice. CDX mice were randomly distributed into a metformin treatment group and a control group. 200 mg/kg (equivalent to human 1000 mg) metformin was dissolved into water, and respectively taken by the 4 groups of animals; then the tumor size was measured; 30 d later, the tumor tissues were killed and weighed.

[1] = system: KRAS^G13DSW48 graft with MATE1 over-expressed; experiment: Cell-derived xenograft (CDX), tumor growth; assay type: in vivo, BALB/c nude mice; conditions: 200 mg/kg in water, 30 d, compared with the KRAS^G13DSW48 tumor, FIGS. 12G-L
Procedure: as §1

SW48 CDX = experiment: Cell-derived xenograft (CDX), tumor growth; assay type: in vivo, BALB/c nude mice; conditions: 200 mg/kg in water, 30 d, vs control group, FIGS. 12G-L
Procedure: The tumor inhibition effect of MATE1 with metformin was verified by a cell-derived xenograft transplantation model (CDX) experiment.
as §1

[2] = system: KRAS wildtype CRC cells SW48; experiment: Proliferation detection (Edu method); assay type: cell-based, human; conditions: FIGS. 8A-B
Procedure: (§2) Edu was used to detect the ratio of proliferative cells, a plate clone formation experiment and PI/Rnase simple staining were used to detect the distribution of cell cycles, thus making the effect of metformin on the proliferation of CRC cells clear.
(§3) 1) Cell treatment by Edu: cells were cultured in a culture dish (covered with a sterilized cover glass), and subjected adherence growth for 12 h, and starvation treatment over the night, and treated with the addition of an agent for the corresponding time, and then added with EdU (final concentration: 10 μM) at the last 2-6 h (EdU treatment time was determined according to the cell growth rate).
(§4) 2) Immobilization: 4% paraformaldehyde was added according to 1 mL/well to immobilize the cells for 15 min at room temperature.
(§5) 3) Slide washing: 3% BSA (dissolved by PBS) was used according to 1 mL/well for washing for twice.
(§6) 4) Rupture of membrane: the cells were treated by 0.5% TritonX-100 according to 1 mL/well for 20 min at room temperature.
(§7) 5) Slide washing: the same as the step 3).
(§8) 6) Addition of a ClickiT reaction mixture: the reaction mixture was added per […] in the dark for 30 min at room temperature. […]
(§9) 11) The slide was observed under a full-automatic positive fluorescence microscope to analyze the result, and shoot and recorded (100×, 200×, 400×, the original image was kept).

[3] = system: KRAS mutation CRC cells LoVo; experiment: Proliferation detection (Edu method); assay type: cell-based, human; conditions: FIGS. 8A-B
Procedure: as §2, §3, §4, §5, §6, §7, §8, §9

[4] = system: LoVo cell line with knock-down KRAS protein; experiment: Cell cycle in KRAS knock-down cells; assay type: cell-based, human; conditions: relative to LoVo, FIG. 8D
Procedure: 1) KRAS interference lentivirus (sh-KRAS) was constructed and packaged by Shanghai Genechem Co., LTD.
2) LoVo cells were subcultured to a 6-well plate (about 1×10^5/well), when cells were subjected to adherence growth, and the degree of cell fusion was not greater than 50%, fresh culture solution was replaced ahead of 2 h, and 10 μg/mL lentivirus infection enhancer polybrene was added. Multiplicity of Infection (MOI) of LoVo was about 20; lentivirus was added according to the formula: adding amount of lentivirus per well (μl)=MOI×cell population/titer (TU/ml)×1000. The culture solution was replaced after 16-18 h, and 1 μM puromycin was conventionally added for screening the cell line whose RNA stable expression was interfered by KRAS.
1) The cells were inoculated onto a 6-well plate, and subjected to adherence growth for 12 h, then starvation treatment over the night, and treated with the addition of an agent for 24 h, then the cells were digested and washed for 3 times with PBS and centrifuged to discard supernatant; −20° C. pre-cooled 70% ethanol was added dropwise, and the cells were mixed well by vortex, and immobilized over the night at −20° C.
2) The cells were horizontally centrifuged for 10 min at 2000 rpm to discard the supernatant; then the cells were washed with PBS for 2-3 times to remove the residual ethanol with centrifugation for 5 min each time. […]

[5] = system: KRAS wildtype CRC cells SW48; experiment: Apoptosis, Annexin V/PI double staining; assay type: cell-based, human; conditions: 2.5 mM, 5 mM and 10 mM, 24 h
Procedure: (§10) Annexin V/PI double staining was used on the KRAS wildtype cell SW48 and KRAS (G13D) mutation cells LoVo to detect the effect of metformin on the apoptosis of colorectal cancer cells.
(§11) 1) The cells were inoculated on a 6-well plate and subjected to adherence growth for 12 h, starvation treatment over the night, and treated with the addition of an agent for 24 h, then the cells were digested by EDTA-free trypsin and washed for once with PBS without immobilization.
(§12) 2) The cells were resuspended with the addition of 300 μl Binding Buffer, then 3 μl Annexin V-FITC and 3 μl Propidium Iodide (PI) were added and mixed well for incubation for 30 min in the dark at room temperature, then the cells were determined by a flow cytometry.
(§13) 3) Flow cytometry detection of antibodies: apoptosis kit (A211-02) was purchased from KeyGEN; the detection kit (558662) for cell cycle PI simple staining was purchased from BD company.

[6] = system: KRAS mutation CRC cells LoVo; experiment: Apoptosis, Annexin V/PI double staining; assay type: cell-based, human; conditions: 2.5 mM, 5 mM and 10 mM, 24 h
Procedure: as §10, §11, §12, §13

CN(C)C(=N)N=C(N)N [metformin]
tumor growth (SW48+sh-MATE1 CDX): significantly inhibits the tumor growth | anti-tumor effect (tumor growth) [1]: has no effect | anti-tumor effect (tumor growth) (SW48 CDX): no obvious anti-tumor effect | ratio of proliferating-phase cells (EdU positive) [2]: no obvious effect | ratio of proliferating-phase cells (EdU positive) [3]: decreases | inhibiting effect on transformation from G1 phase to phase S after interference of KRAS (G13D) expression [4]: down-regulate the inhibiting effect | apoptosis [5]: do not accelerate the apoptosis | apoptosis [6]: do not accelerate the apoptosis
